From US9302999B2, “Substituted triazoles as herbicides” (E. I. DU PONT DE NEMOURS AND COMPANY, priority 2012, dated 2016)

How the values were obtained:
Type in all cases: in vivo
[1] = tested on: pigweed (Amaranthus retroflexus); assay: Test D pre-/postemergence: pigweed
How it was run: (§1)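 Visual 0–100 rating versus untreated controls (0 no effect, 100 complete control), taken 14 to 21 days after treatment in a controlled growth environment. Preemergence: silt loam soil. Postemergence: peat moss/vermiculite medium, plants 2 to 18 cm, 1- to 4-leaf stage. Solvent mixture with surfactant.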

[2] = tested on: speedwell (bird's-eye speedwell, Veronica persica); assay: Test D pre-/postemergence: speedwell
Excerpt: (§2) Seeds of plant species selected from bluegrass (annual bluegrass, Poa annua), blackgrass (Alopecurus myosuroides), canarygrass (Phalaris minor), chickweed (common chickweed, Stellaria media), galium (catchweed bedstraw, Galium aparine), bromegrass, downy (downy bromegrass, Bromus tectorum), field poppy (Papaver rhoeas), field violet (Viola arvensis), foxtail, green (green foxtail, Setaria viridis), deadnettle (henbit deadnettle, Lamium amplexicaule), ryegrass, Italian (Italian ryegrass, Lolium multiflorum), kochia (Kochia scoparia), lambsquarters (Chenopodium album), oilseed rape (Brassica napus), pigweed (Amaranthus retroflexus), Russian thistle (Salsola iberica), chamomile (scentless chamomile, Matricaria inodora), speedwell (bird's-eye speedwell, Veronica persica), barley, spring (spring barley, Hordeum vulgare), wheat, spring (spring wheat, Triticum aestivum), buckwheat, wild (wild buckwheat, Polygonum convolvulus), mustard, wild (wild mustard, Sinapis arvensis), oat, wild (wild oat, Avena fatua), radish, wild (wild radish, Raphanus raphanistrum), windgrass (Apera spica-venti), barley, winter (winter barley, Hordeum vulgare), and wheat, winter (winter wheat, Triticum aestivum) were planted into a silt loam soil and treated preemergence with test chemicals formulated in a non-phytotoxic solvent mixture which included a surfactant. At the same time, these same crop and weed species were planted in pots containing the planting medium comprising spaghnum peat moss, vermiculite, wetting agent and starter nutrients and treated with postemergence applications of the test chemicals formulated in the same manner. Plants ranged in height from 2 to 18 cm (1- to 4-leaf stage).
(§3) Treated plants and controls were maintained in a controlled growth environment for 14 to 21 days after which time all species were compared to controls and visually evaluated. Plant response ratings, summarized in Table D, are based on a scale of 0 to 100 where 0 is no effect and 100 is complete control. A dash (-) response means no test result.

[3] = tested on: wheat, spring (spring wheat, Triticum aestivum); assay: Test D pre-/postemergence: wheat, spring
Excerpt: as §2, §3

[4] = tested on: barley, spring (spring barley, Hordeum vulgare); assay: Test D pre-/postemergence: barley, spring
Excerpt: as §2, §3

[5] = tested on: kochia (Kochia scoparia); assay: Test D pre-/postemergence: kochia
How it was run: as §1

[6] = tested on: windgrass (Apera spica-venti); assay: Test C postemergence: windgrass
How it was run: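 Pot-grown plants in peat/vermiculite medium sprayed postemergence at 2–18 cm height (1- to 4-leaf stage). Kept in greenhouse 13 to 15 days, then visually rated against untreated controls on a 0–100 scale (0 = no effect, 100 = complete control).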

[7] = tested on: field violet (Viola arvensis); assay: Test D pre-/postemergence: field violet
Excerpt: as §2, §3

[8] = tested on: ducksalad (Heteranthera limosa); assay: Test B flooded paddy: ducksalad; details: Flood; 250 g ai/ha; applied to paddy water at 2-leaf stage; visually evaluated after 13 to 15 days
How it was run: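 Response scored visually, 0–100 relative to controls, 13–15 days after the compound was applied into paddy water; plants were at the 2-leaf stage in pots kept flooded to 3 cm.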

[9] = Postemergence, 31 g ai/ha, scale 0 to 100 (0 no effect, 100 complete control)
[10] = Postemergence, 62 g ai/ha, scale 0 to 100 (0 no effect, 100 complete control)
[11] = Postemergence, 125 g ai/ha, scale 0 to 100, 0 no effect, 100 complete control
[12] = Postemergence, 250 g ai/ha, scale 0 to 100 (0 no effect, 100 complete control)
[13] = Postemergence, 16 g ai/ha, scale 0 to 100
[14] = Preemergence, 16 g ai/ha, scale 0 to 100 (0 no effect, 100 complete control)
[15] = Preemergence, 31 g ai/ha, scale 0 to 100 (0 no effect, 100 complete control)
[16] = Preemergence, 62 g ai/ha, scale 0 to 100
[17] = Preemergence, 125 g ai/ha, scale 0 to 100
[18] = Preemergence, 250 g ai/ha, scale 0 to 100
[19] = 31 g ai/ha, scale 0 to 100 (0 no effect, 100 complete control)
[20] = 62 g ai/ha, scale 0 to 100 (0 no effect, 100 complete control)
[21] = 125 g ai/ha, scale 0 to 100, 0 no effect, 100 complete control

Cc1nn(-c2ccc(F)cc2)nc1Cc1ccnc(C(F)(F)F)c1 [Compound 16, 4-[[2-(4-fluorophenyl)-5-methyl-2H-1,2,3-triazol-4-yl]methyl]-2-(trifluoromethyl)pyridine]
Plant response rating: Pigweed [1, 9]: 70 | Plant response rating: Pigweed [1, 10]: 80 | Plant response rating: Pigweed [1, 11]: 90 | Plant response rating: Pigweed [1, 12]: 100 | Plant response rating, Pigweed [1, 13]: 50 | Plant response rating, Pigweed [1, 14]: 25 | Plant response rating, Pigweed [1, 15]: 80 | Plant response rating, Pigweed [1, 16]: 80 | Plant response rating, Pigweed [1, 17]: 90 | Plant response rating, Pigweed [1, 18]: 100 | Plant response rating: Speedwell [2, 9]: 75 | Plant response rating: Speedwell [2, 10]: 85 | Plant response rating: Speedwell [2, 11]: 95 | Plant response rating: Speedwell [2, 12]: 100 | Plant response rating, Speedwell [2, 13]: 25 | Plant response rating, Speedwell [2, 15]: 20 | Plant response rating, Speedwell [2, 16]: 40 | Plant response rating, Speedwell [2, 17]: 100 | Plant response rating, Speedwell [2, 18]: 100 | Plant response rating: Wheat, Spring [3, 9]: 10 | Plant response rating: Wheat, Spring [3, 10]: 10 | Plant response rating: Wheat, Spring [3, 11]: 15 | Plant response rating: Wheat, Spring [3, 12]: 20 | Plant response rating, Wheat, Spring [3, 13]: 5 | Plant response rating, Wheat, Spring [3, 14]: 0 | Plant response rating, Wheat, Spring [3, 15]: 0 | Plant response rating, Wheat, Spring [3, 16]: 0 | Plant response rating, Wheat, Spring [3, 17]: 5 | Plant response rating, Wheat, Spring [3, 18]: 10 | Plant response rating: Barley, Spring [4, 9]: 15 | Plant response rating: Barley, Spring [4, 10]: 15 | Plant response rating: Barley, Spring [4, 11]: 20 | Plant response rating: Barley, Spring [4, 12]: 35 | Plant response rating, Barley, Spring [4, 13]: 5 | Plant response rating, Barley, Spring [4, 14]: 0 | Plant response rating, Barley, Spring [4, 15]: 0 | Plant response rating, Barley, Spring [4, 16]: 5 | Plant response rating, Barley, Spring [4, 17]: 5 | Plant response rating, Barley, Spring [4, 18]: 5 | Plant response rating: Kochia [5, 9]: 90 | Plant response rating: Kochia [5, 10]: 95 | Plant response rating: Kochia [5, 11]: 75 | Plant response rating: Kochia [5, 12]: 95 | Plant response rating, Kochia [5, 13]: 85 | Plant response rating, Kochia [5, 14]: 30 | Plant response rating, Kochia [5, 15]: 30 | Plant response rating, Kochia [5, 16]: 90 | Plant response rating, Kochia [5, 17]: 90 | Plant response rating, Kochia [5, 18]: 100 | Plant response rating, Windgrass [6, 19]: 45 | Plant response rating, Windgrass [6, 20]: 50 | Plant response rating, Windgrass [6, 21]: 50 | Plant response rating, Windgrass ([6]; 250 g ai/ha, scale 0 to 100): 50 | Plant response rating: Field Violet [7, 9]: 20 | Plant response rating: Field Violet [7, 10]: 30 | Plant response rating: Field Violet [7, 11]: 70 | Plant response rating: Field Violet [7, 12]: 80 | Plant response rating, Field Violet [7, 13]: 0 | Plant response rating, Field Violet [7, 14]: 0 | Plant response rating, Field Violet [7, 15]: 30 | Plant response rating, Field Violet [7, 16]: 80 | Plant response rating, Field Violet [7, 17]: 90 | Plant response rating, Field Violet [7, 18]: 100

Cc1nn(-c2ccc(F)cc2)nc1Oc1ccnc(C(F)(F)F)c1 [Compound 129, 4-[[2-(4-fluorophenyl)-5-methyl-2H-1,2,3-triazol-4-yl]oxy]-2-(trifluoromethyl)pyridine]
Plant response rating: Pigweed [1, 9]: 100 | Plant response rating: Pigweed [1, 10]: 100 | Plant response rating: Pigweed [1, 11]: 100 | Plant response rating: Pigweed [1, 12]: 100 | Plant response rating, Pigweed [1, 13]: 100 | Plant response rating, Pigweed [1, 14]: 30 | Plant response rating, Pigweed [1, 15]: 80 | Plant response rating, Pigweed [1, 16]: 90 | Plant response rating, Pigweed [1, 17]: 100 | Plant response rating, Pigweed [1, 18]: 100 | Plant response rating: Speedwell [2, 9]: 100 | Plant response rating: Speedwell [2, 10]: 100 | Plant response rating: Speedwell [2, 11]: 100 | Plant response rating: Speedwell [2, 12]: 100 | Plant response rating, Speedwell [2, 13]: 100 | Plant response rating: Wheat, Spring [3, 9]: 10 | Plant response rating: Wheat, Spring [3, 10]: 10 | Plant response rating: Wheat, Spring [3, 11]: 15 | Plant response rating: Wheat, Spring [3, 12]: 20 | Plant response rating, Wheat, Spring [3, 13]: 5 | Plant response rating, Wheat, Spring [3, 14]: 0 | Plant response rating, Wheat, Spring [3, 15]: 0 | Plant response rating, Wheat, Spring [3, 16]: 0 | Plant response rating, Wheat, Spring [3, 17]: 5 | Plant response rating, Wheat, Spring [3, 18]: 15 | Plant response rating: Barley, Spring [4, 9]: 5 | Plant response rating: Barley, Spring [4, 10]: 5 | Plant response rating: Barley, Spring [4, 11]: 10 | Plant response rating: Barley, Spring [4, 12]: 10 | Plant response rating, Barley, Spring [4, 13]: 5 | Plant response rating, Barley, Spring [4, 14]: 0 | Plant response rating, Barley, Spring [4, 15]: 0 | Plant response rating, Barley, Spring [4, 16]: 5 | Plant response rating, Barley, Spring [4, 17]: 15 | Plant response rating, Barley, Spring [4, 18]: 20 | Plant response rating: Kochia [5, 9]: 98 | Plant response rating: Kochia [5, 10]: 100 | Plant response rating: Kochia [5, 11]: 100 | Plant response rating: Kochia [5, 12]: 100 | Plant response rating, Kochia [5, 13]: 98 | Plant response rating, Kochia [5, 14]: 20 | Plant response rating, Kochia [5, 15]: 25 | Plant response rating, Kochia [5, 16]: 75 | Plant response rating, Kochia [5, 17]: 100 | Plant response rating, Kochia [5, 18]: 100 | Plant response rating, Windgrass [6, 19]: 60 | Plant response rating, Windgrass [6, 20]: 80 | Plant response rating, Windgrass [6, 21]: 85 | Plant response rating, Windgrass ([6]; 250 g ai/ha, scale 0 to 100): 100 | Plant response rating: Field Violet [7, 9]: 100 | Plant response rating: Field Violet [7, 10]: 100 | Plant response rating: Field Violet [7, 11]: 100 | Plant response rating: Field Violet [7, 12]: 80 | Plant response rating, Field Violet [7, 13]: 40 | Plant response rating, Field Violet [7, 14]: 100 | Plant response rating, Field Violet [7, 15]: 100 | Plant response rating, Field Violet [7, 16]: 100 | Plant response rating, Field Violet [7, 17]: 100 | Plant response rating, Field Violet [7, 18]: 100

Fc1ccc(-n2nc(Cc3ccnc(C(F)(F)F)c3)c(OCC(F)(F)F)n2)cc1 [Compound 142]
Plant response rating, Ducksalad (0 to 100 scale, 0 is no effect, 100 is complete control) [8]: 90 | Plant response rating, Windgrass [6, 19]: 80 | Plant response rating, Windgrass [6, 20]: 80 | Plant response rating, Windgrass [6, 21]: 85 | Plant response rating, Windgrass ([6]; 250 g ai/ha, scale 0 to 100): 95
